Four compounds from patent US20070003565A1 (priority 2003, published 2007) can be followed below.

Series [1] deals with MT-4 cells. The experiment in a line: Cytotoxicity to MT-4 cells (MTT method). The series is classed as cell-based. The conditions noted are these: 12000 ng/ml to 24 ng/ml, 6 days. How it is done: Then test drugs were added. […] Cell growth was subsequently determined by the MTT method.
On the technique in general: Formazan colour is commonly taken as a measure of viable cells.

Series [2] deals with No.04 coronavirus.
In series [3] the test system is No.04 coronavirus. Description: microbe, parasite or virus in culture. The conditions noted are these: Severe acute respiratory syndrome coronavirus.

Converted amounts (≈) assume the structure as drawn. Residues, ends and D or L forms follow the SMILES beside them.

On to `CC[C@H](C)[C@H](NC(=O)[C@@H](NC(=O)[C@@H]1CCCN1C(=O)[C@H](CC(=O)O)NC(=O)[C@H](Cc1c[nH]cn1)NC(=O)[C@@H](NC(=O)[C@@H](N)CCSC)[C@@H](C)O)C(C)C)C(=O)N[C@@H](CO)C(=O)N[C@@H](CC(C)C)C(=O)N1CCC[C@H]1C(=O)N[C@H](C(=O)N[C@H](C(=O)O)[C@@H](C)O)[C@@H](C)O` [HAb18G-AP-1] (H-MTHDPVISLPTT-OH), for which, in series [1], the “cell growth of MT-4 cells (in words)” value was “cell growth was not affected”.

`CC(C)C[C@H](NC(=O)[C@H](CCCCN)NC(=O)[C@@H](N)Cc1ccc(O)cc1)C(=O)N1CCC[C@H]1C(=O)NCC(=O)N[C@@H](Cc1c[nH]cn1)C(=O)N[C@@H](Cc1c[nH]cn1)C(=O)N[C@@H](Cc1c[nH]cn1)C(=O)N[C@@H](Cc1c[nH]cn1)C(=O)N[C@@H](Cc1ccc(O)cc1)C(=O)N[C@@H](CCCNC(=N)N)C(=O)N1CCC[C@H]1C(=O)O` [HAb18G-AP-9] (H-YKLPGHHHHYRP-OH): the “cell growth of MT-4 cells (in words)” value in series [1] was “cell growth was not affected”.

Consider `Nc1nc(O)c2ncn(COC(CO)CO)c2n1` [Ganciclovir, ganciclovir], for which the “treatment index (TI)” value in series [2] (CPE method, 293 cells) was determined as 256. Moreover, the IC50 in series [3] (HEK293, read-out: half-inhibitory concentration (IC50)) was found to be 11.7 µg/mL (≈ 45.8 µM). Besides, in series [3] (read-out: minimum inhibitory concentration (MIC)), the MIC stood at 23.4 µg/mL (≈ 91.8 µM).

As for `N=C(N)NCCC[C@H](NC(=O)[C@H](Cc1c[nH]cn1)NC(=O)[C@H](Cc1c[nH]c2ccccc12)NC(=O)[C@H](Cc1c[nH]cn1)NC(=O)[C@H](CCCCN)NC(=O)[C@H](Cc1c[nH]cn1)NC(=O)[C@H](Cc1c[nH]cn1)NC(=O)[C@H](Cc1ccccc1)NC(=O)[C@@H]1CCCN1C(=O)[C@@H](N)Cc1ccc(O)cc1)C(=O)N1CCC[C@H]1C(=O)N[C@@H](CC(N)=O)C(=O)O` [HAb18G-AP-6, Tyr Pro Phe His His Lys His Typ His Arg Pro Asn] (H-YPFHHKHWHRPN-OH), in series [1], the “cell growth of MT-4 cells (in words)” value was “cell growth was not affected”. Also, in series [2] (24 h), the “half-inhibitory concentration (IC50)” value is 31.25 ± 0 µg/mL and the “minimum inhibitory concentration (MIC)” value came out at 62.25 ± 0 µg/mL (≈ 37.6 µM).
